Results: ChEMBL document CHEMBL5532750, “Small molecule targeted therapies for endometrial cancer: progress, challenges, and opportunities” (RSC Med Chem, 2024)

Tests used:
Ishikawa [1] = experiment: Anticancer activity against human Ishikawa cells assessed as cell mortality rate at 600 uM measured after 48 hrs by MTT assay relative to control; format: functional
Ishikawa [2] = experiment: Anticancer activity against human Ishikawa cells assessed as cell mortality rate at 100 uM measured after 48 hrs by MTT assay relative to control; format: functional
Ishikawa [3] = experiment: Anticancer activity against human Ishikawa cells assessed as cell mortality rate at 100 uM measured after 24 hrs by MTT assay relative to control; format: functional
Ishikawa [4] = experiment: Antiproliferative activity against human Ishikawa cells assessed as inhibition of VEGF secretion measured after 24 hrs by ELISA assay; format: functional, cell-based
Ishikawa [5] = experiment: Antiproliferative activity against human Ishikawa cells assessed as reduction in cell viability; format: functional, cell-based
ECC-1 [6] = experiment: Antiproliferative activity against human ECC-1 cells assessed as combination index at 0.5 mM incubated for 48 hrs in presence of paclitaxel by MTT assay; format: functional
Ishikawa [7] = experiment: Antiproliferative activity against human Ishikawa cells assessed as combination index at 0.5 mM incubated for 48 hrs in presence of paclitaxel by MTT assay; format: functional
HEC-1B cell line [8] = experiment: Antiproliferative activity against human HEC-1B cell line assessed as reduction in cell viability
SPEC-2 [9] = experiment: Induction of cell death in human SPEC-2 cells assessed as increase in ROS level at 5 uM incubated for 24 hrs by DCFH-DA based microplate reader analysis relative to control; format: functional
SPEC-2 [10] = experiment: Induction of cell death in human SPEC-2 cells assessed as increase in caspase-9 by measuring fold change using […] as substrate at 5 uM incubated for 24 hrs followed by substrate addition and measured after 30 mins by ELISA analysis; format: functional; settings: time 1470 min, 24.5 h
ECC-1 [11] = experiment: Antitumor activity against human ECC-1 cells xenografted in LKB1fl/flp53fl/fl mouse assessed as tumor growth inhibition (reference value: 68 %); format: functional
SPEC-2 [12] = experiment: Antiproliferative activity against human SPEC-2 cells assessed as reduction in cell viability incubated for 72 hrs by MTT assay; format: functional, cell-based; settings: SPEC-2, 72 h
USPC-ARK-1 [13] = experiment: Antiproliferative activity against human USPC-ARK-1 cells assessed as reduction in cell viability incubated for 72 hrs by MTT assay; format: functional, cell-based; settings: USPC-ARK-1, 72 h
USPC-ARK-1 [14] = experiment: Induction of cell death in human USPC-ARK-1 cells assessed as increase in ROS level at 5 uM incubated for 24 hrs by DCFH-DA based microplate reader analysis relative to control; format: functional
USPC-ARK-1 [15] = experiment: Induction of cell death in human USPC-ARK-1 cells assessed as increase in cleaved caspase-3 by measuring fold change using Ac-DEVD-AMC as substrate at 5 uM incubated for 24 hrs followed by substrate addition and measured after 30 mins by ELISA analysis; format: functional; settings: time 1470 min, 24.5 h
Ishikawa [16] = experiment: Antitumor activity against human Ishikawa cells xenografted in LKB1fl/flp53fl/fl mouse assessed as tumor growth inhibition (reference value: 68 %); format: functional
USPC-ARK-1 [17] = experiment: Induction of apoptosis in human USPC-ARK-1 cells assessed as decrease in mitochondrial membrane potential at 5 uM incubated for 8 hrs by JC-1 fluorescent probe based plate reader analysis; format: functional; set-up: scale not given: the % may be the effect or the level left
SPEC-2 [18] = experiment: Induction of cell death in human SPEC-2 cells assessed as increase in cleaved caspase-3 by measuring fold change using Ac-DEVD-AMC as substrate at 5 uM incubated for 24 hrs followed by substrate addition and measured after 30 mins by ELISA analysis; format: functional; settings: time 1470 min, 24.5 h
SPEC-2 [19] = experiment: Induction of apoptosis in human SPEC-2 cells assessed as decrease in mitochondrial membrane potential at 5 uM incubated for 8 hrs by JC-1 fluorescent probe based plate reader analysis; format: functional; set-up: scale not given: the % may be the effect or the level left
SPEC-2 [20] = experiment: Inhibition of cell invasion in serum-starved human SPEC-2 cells at 0.05 to 5 uM incubated for 3.5 hrs by calcein AM staining based plate reader analysis relative to control; format: functional; settings: dose 0.05-5 µM
USPC-ARK-1 [21] = experiment: Induction of cell death in human USPC-ARK-1 cells assessed as increase in caspase-9 by measuring fold change using […] as substrate at 5 uM incubated for 24 hrs followed by substrate addition and measured after 30 mins by ELISA analysis; format: functional; settings: time 1470 min, 24.5 h
USPC-ARK-1 [22] = experiment: Inhibition of cell invasion in serum-starved human USPC-ARK-1 cells at 0.05 to 5 uM incubated for 3.5 hrs by calcein AM staining based plate reader analysis relative to control; format: functional; settings: dose 0.05-5 µM
ECC-1 [23] = experiment: Antiproliferative activity against human ECC-1 cells assessed as combination index incubated for 48 hrs in presence of Metformin by MTT assay; format: functional
Ishikawa [24] = experiment: Antiproliferative activity against human Ishikawa cells assessed as combination index incubated for 48 hrs in presence of Metformin by MTT assay; format: functional
ECC-1 [25] = experiment: Antiproliferative activity against human ECC-1 cells assessed as reduction in cell viability; format: functional, cell-based
RL95-2 = experiment: Induction of apoptosis in human RL95-2 cells assessed as fold change incubated for 48 hrs; format: functional
Ishikawa [26] = experiment: Induction of apoptosis in human Ishikawa cell line assessed as fold change incubated for 48 hrs; format: functional
HEC-1B cell line [27] = experiment: Induction of apoptosis in human HEC-1B cell line assessed as fold change incubated for 48 hrs; format: functional

Work on CC(C)CC(/N=C/c1cccc(B(O)O)c1)C(=O)O (stereo not drawn) yielded an Activity (Ishikawa [1]) of 88.3%.

In the case of OB(O)c1ccc(/C=N/c2cccc3cccc(/N=C/c4ccc(B(O)O)cc4)c23)cc1, the Activity (Ishikawa [2]) is reported as 72%.

Compound CC(C)CC(/N=C/c1ccc(B(O)O)cc1)C(=O)O (stereo not drawn) has an Activity (Ishikawa [1]) of 76%.

With OB(O)c1cccc(/C=N/c2ccc(-c3ccc(/N=C/c4cccc(B(O)O)c4)cc3)cc2)c1 the Activity (Ishikawa [2]) was 84%.

Compound O=C(O)CSC[C@H](/N=C/c1ccc(B(O)O)cc1)C(=O)O has an Activity (Ishikawa [2]) of 49% and an Activity (Ishikawa [3]) of 54%.

Work on O=C(O)c1ccc(C(=O)O)c(/N=C/c2ccc(B(O)O)cc2)c1 yielded an Activity (Ishikawa [1]) of 72%.

O=C(O)CN=C(/N=C/c1ccc(B(O)O)cc1)/N=C/c1ccc(B(O)O)cc1 gave an Activity (Ishikawa [1]) of 18%.

OB(O)c1ccc(/C=N/c2ccc(-c3ccc(/N=C/c4ccc(B(O)O)cc4)cc3)cc2)cc1 gave an Activity (Ishikawa [1]) of 14%.

For CCN(CC)CCCOc1ccc(-n2c3c(c4ccccc4c2=O)C(=O)c2ccccc2-3)cc1, the IC50 (Ishikawa [4]) was 3.08 nM.

With O=c1[nH]cc(F)c(=O)[nH]1 [FLUOROURACIL] the IC50 (Ishikawa [5]) was > 100000 nM.

In the case of CN(C)C(=N)NC(=N)N [METFORMIN], the CI (ECC-1 [6]) is reported as <1 and the CI (Ishikawa [7]) is reported as <1.

NC(=O)c1cccc2cn(-c3ccc([C@@H]4CCCNC4)cc3)nc12 [NIRAPARIB] was tested, and the IC50 (Ishikawa [5]) was 24 nM and the IC50 (HEC-1B cell line [8]) was 127 nM.

O=C1C2=C(CCN(Cc3ccccc3)C2)N2CCN=C2N1Cc1ccc(F)cc1F [ONC-206] was tested, and the Activity (SPEC-2 [9]) was 83%, the “fold change (FC)” value (SPEC-2 [10]) was 1.4 and the TGI (ECC-1 [11]) was 73%. The IC50 (SPEC-2 [12]) was 240 nM, the IC50 (USPC-ARK-1 [13]) was 330 nM and the Activity (USPC-ARK-1 [14]) was 83%. For the same compound, the “fold change (FC)” value (USPC-ARK-1 [15]) was 1.7, the TGI (Ishikawa [16]) was 73% and the Activity (USPC-ARK-1 [17]) was 16%. The “fold change (FC)” value (SPEC-2 [18]) was 1.4, the Activity (SPEC-2 [19]) was 16% and the “inhibition (INH)” value (SPEC-2 [20]) was 34%. For the same compound, the “fold change (FC)” value (USPC-ARK-1 [21]) was 1.5 and the “inhibition (INH)” value (USPC-ARK-1 [22]) was 26.6%.

With CC(=O)O[C@H]1C(=O)[C@@]2(C)[C@H]([C@H](OC(=O)c3ccccc3)[C@]3(O)C[C@H](OC(=O)[C@H](O)[C@@H](NC(=O)c4ccccc4)c4ccccc4)C(C)=C1C3(C)C)[C@]1(OC(C)=O)CO[C@@H]1C[C@@H]2O [PACLITAXEL] the CI (ECC-1 [23]) was <1, the IC50 (Ishikawa [5]) was 0.5 nM and the CI (Ishikawa [24]) was <1. For the same compound, the IC50 (ECC-1 [25]) was 0.1 nM.

In the case of CCC(C)(C)C(=O)O[C@H]1C[C@@H](C)C=C2C=C[C@H](C)[C@H](CC[C@@H]3C[C@@H](O)CC(=O)O3)[C@H]21 [SIMVASTATIN], the “fold change (FC)” value (RL95-2) is reported as 354, the “fold change (FC)” value (Ishikawa [26]) is reported as 127 and the IC50 (Ishikawa [5]) is reported as ~17000 nM. The “fold change (FC)” value (HEC-1B cell line [27]) was 88 and the IC50 (ECC-1 [25]) was ~15000 nM.
